{
  "source": "BindingDB's records for doi:10.1021/jm049715t",
  "about": "(Uppsala University, 2004)",
  "biological_target": "Type-2 angiotensin II receptor (Sus scrofa)",
  "test": "Displacement of [125I]-Ang II from pig uterus membrane angiotensin II type 2 (AT2) receptor",
  "data": [
    {"smiles": "CCCCOC(=O)NS(=O)(=O)c1sc(CC(C)C)cc1-c1ccc(Cn2c(CC)nc3ccccc32)cc1", "note": "[butyl (5-isobutylthien-2-yl)sulfonylcarbamate derivative]", "values": [
      {"measurement": "Ki", "value": 3.2, "unit": "nM"}
    ]},
    {"smiles": "CCCCOC(=O)NS(=O)(=O)c1sc(CC(C)C)cc1-c1ccc(Cn2ccnc2C)cc1", "note": "[butyl (5-isobutylthien-2-yl)sulfonylcarbamate derivative]", "values": [
      {"measurement": "Ki", "value": 0.5, "unit": "nM"}
    ]},
    {"smiles": "CCCCOC(=O)NS(=O)(=O)c1sc(CC(C)C)cc1-c1ccc(Cn2cnc3cccnc32)cc1", "note": "[butyl (5-isobutylthien-2-yl)sulfonylcarbamate derivative]", "values": [
      {"measurement": "Ki", "value": 7.1, "unit": "nM"}
    ]},
    {"smiles": "CCCCOC(=O)NS(=O)(=O)c1sc(CC(C)C)cc1-c1ccc(Cn2cnc3ccccc32)cc1", "note": "[butyl (5-isobutylthien-2-yl)sulfonylcarbamate derivative]", "values": [
      {"measurement": "Ki", "value": 4, "unit": "nM"}
    ]},
    {"smiles": "CCCCOC(=O)NS(=O)(=O)c1sc(CC(C)C)cc1-c1ccc(CC#N)cc1", "note": "[butyl (5-isobutylthien-2-yl)sulfonylcarbamate derivative]", "values": [
      {"measurement": "Ki", "value": 70, "unit": "nM"}
    ]}
  ]
}
